Experiments:
[1] = Turbidity and optical microscopy of LLPS; assay type: physicochemical; settings: 0.1 M phosphate buffer pH 7.4, 1M NaCl
BMDCs = assay: Cytokine, chemokine and growth factor production by BMDCs; assay type: cell-based, mouse; settings: coacervates 10 μM, 24 h, multiplex assays; LPS positive control
[2] = test system: BMDCs overlaid with BB7 hybridoma cells; assay: Antigen presentation assay with Ag85B and BB7 hybridoma; assay type: cell-based, mouse; settings: Ag85B ∼0.5 μM, BMDCs to BB7 cells 1:7

| Substance | coacervates at 1M NaCl (optical micrographs) [1] | induction of cytokines, chemokines and growth factors in BMDCs (BMDCs) | antigen presentation of Ag85B (IL-2) [2] |
| --- | --- | --- | --- |
| (GHGLY)4 [GL 20] | presence of coacervates | immunologically inert | enhanced antigen presentation of Ag85B |
| (GHGVY)4 [GV 20] | presence of coacervates | immunologically inert | enhanced antigen presentation of Ag85B |

From paper doi:10.1101/2024.09.10.612317v1 (bioRxiv, 2024)
